Measurements as given in patent US10588921B2, “Drug for the treatment of cholesterol accumulation disorders” (NATIONAL UNIVERSITY CORPORATION KUMAMOTO UNIVERSITY, priority 2013, dated 2020).
“Also recorded” adds a separate entry of the source.

Legend:
cultured cells = settings: Non-Patent Document 5; cited from earlier work
normal mice = experiment: Acute toxicity test in normal mice; type: in vivo, mouse; settings: 14.4 mM, 19.18 ml/g subcutaneous, 8-week-old normal mice; FIG. 34
Description: To confirm the excellent safety of HPGCD, acute toxicity was tested using normal mice. 14.4 mM HPBCD or HPGCD were injected in the amount of 19.18 ml/g into subcutaneous tissues of 8-week-old mice (n=10), and then survival rates were calculated.

p62 [1] = experiment: Immunoblot of insoluble p62 in HLCs; type: cell-based, human; settings: 1 mM HPCD, 4 days; FIG. 23
Description: (§1) Protein lysates were separated by SDS-PAGE and transferred to PVDF membrane. LC3-I and LCS3-II were detected by anti-LC3 antibody (Cell Signaling). The data are normalized to α-tubulin expression. The HLCs were solved in RIPA buffer and then insoluble p62 was collected as a pellet after the centrifuge of the samples.
(§2) HLCs were culture with 1 mM 2-hydroxypropylcyclodextrins (HPCDs) for 4 days, and ATP level, expression levels of LC3 and p62, and insoluble p62 granules were measured.

NPC model mice [2] = experiment: HPGCD treatment of NPC model mice (serum markers, histology, autophagy); type: in vivo, mouse
Description: Effects of HPGCD treatment on cholesterol accumulation in NPC-derived HLCs were evaluated using NPC-model mice. NPC model mice bear a spontaneous mutation of the Npc1 gene that causes a defect in lysosome to ER trafficking of cholesterol. […] The model mice show liver injury and neural functional impairment and die before 12 weeks old without proper treatment.
4-week-old NPC mice were treated with HPGCD (4000 mg/kg) once a week until 8.5 weeks of age (5 injections in total), followed by sample collection. Control was treated with saline. The experiments were conducted twice (first; n=6; second: n=4).

isolated erythrocyte = settings: in vitro; cited from earlier work
LC3 = experiment: Immunoblot of LC3 expression in HLCs; type: cell-based, human; settings: 1 mM HPCD, 4 days; FIG. 22
Description: as §1, §2

NPC model mice [3] = experiment: Survival of NPC model mice; type: in vivo, mouse; settings: 4-week-old model mice injected once a week; FIG. 33
Description: To evaluate the effect of HPGCD treatment on NPC mice survival, 4-week-old model mice were injected with HPGCD one a week (HPGCD injection group: n=6, control (saline injection) group: n=6).

NPC-derived HLCs [4] = experiment: Cell size of HLCs; type: cell-based, human; settings: data not shown
Description: The cell sizes of albumin-positive cells was calculated by Developer Toolbox software of IN CELL ANALYZER 6000 (GE Healthcare).
(§3) The size of HLCs is decreased by the treatments with HPBCD and HPGCD (data not shown). Effects of various concentration of HPBCD and HPGCD in NPC-derived HLCs was observes. HLCs were cultured with HPBCD or HPGCD for 4 days, stained with filipin and analyzed with an IN CELL ANALYSER (GE Healthcare).

p62 [5] = experiment: Count of insoluble p62 granules in HLCs (IN CELL ANALYZER); type: cell-based, human; settings: 1 mM HPCD, 4 days; FIG. 24
Description: Alkaline phosphatase staining was performed using the Leukocyte Alkaline Phosphatase kit (SIGMA). For immunocytochemistry, cells were fixed with PBS containing 4% paraformaldehyde for 30 min at 4° C. For the molecules localized in nucleus, samples were treated with 0.2% Triton X-100 for 15 min at room temperature (RT). The cells were washed three times with PBS containing 2% FBS and then incubated overnight at 4° C. in PBS containing 2% FBS with primary antibodies. Nucleuses were stained with Propidium Iodide (PI, WAKO, Japan) and 1 mg/ml Hoechst 33258 (Invitrogen). The list of the primary and secondary antibodies is described in Table 3. For Filipin staining, samples were washed with PBS three times after the fixing and incubated with PBS containing 1.5 mg/ml glycine for 10 min at RT. The samples were then treated with PBS containing 10% FBS and 50 mg/ml Filipin (SIGMA). The data was calculated by UV absorption (360/460) and analyzed with Developer Toolbox software of IN CELL ANALYZER 6000 (GE Healthcare). The number of insoluble p62 granules were counted by IN CELL ANALYZER 6000 (GE Healthcare). […]
as §2

NPC-derived HLCs [6] = type: cell-based, human
Description: For hepatocyte-like cell (HLC) induction, the culture medium of semi-confluent human iPS cells were switched from the iPS medium to the definitive endoderm differentiation medium containing RPMI1640 supplemented with 2% B27 (Life technologies), 100 ng/m1 Activin A and 1 mM Sodium butyrate (NaB, SIGMA). The NaB concentration is changed in 0.5 mM on day 2. On day 4, the cells were harvested and re-seeded onto Matrigel-coated dishes in hepatic differentiation medium containing DMEM supplemented with 20% KSR, 1 mM glutamine, 1 mM NEAA, 0.1 mM 2-mercaptoethanol (SIGMA), 1% Dimethyl sulfoxide (DMSO, SIGMA). CXCR4 expressions were examined by FACS on day 4. On day 11, the cells were harvested and re-cultured in the hepatic maturation medium containing L15 medium (SIGMA) supplemented with 8.3% FBS, 8.3% tryptose phosphate broth (SIGMA), 10 mM hydrocortisone 21-hemisuccinate (SIGMA), 1 mM insulin (SIGMA), 2 mM glutamine, lOng/ml Hepatocyte growth factor (HGF, R & D) and 20 ng/ml Oncostatin M (OSM, R & D). On day 18, the cells were used for various experiments. For the hydroxypropyl cyclodextrin treatments, HLCs were cultured with 0.1 mM or 1 mM of the hydroxypropyl cyclodextrins for four days. For Annexin and TUNEL stainings, HLCs are cultured for four days and a week from day 18, respectively.
Alkaline phosphatase staining was performed using the Leukocyte Alkaline Phosphatase kit (SIGMA). For immunocytochemistry, cells were fixed with PBS containing 4% paraformaldehyde for 30 min at 4° C. For the molecules localized in nucleus, samples were treated with 0.2% Triton X-100 for 15 min at room temperature (RT). The cells were washed three times with PBS containing 2% FBS and then incubated overnight at 4° C. in PBS containing 2% FBS with primary antibodies. Nucleuses were stained with Propidium Iodide (PI, WAKO, Japan) and 1 mg/ml Hoechst 33258 (Invitrogen). The list of the primary and secondary antibodies is described in Table 3. For Filipin staining, samples were washed with PBS three times after the fixing and incubated with PBS containing 1.5 mg/ml glycine for 10 min at RT. The samples were then treated with PBS containing 10% FBS and 50 mg/ml Filipin (SIGMA). The data was calculated by UV absorption (360/460) and analyzed with Developer Toolbox software of IN CELL ANALYZER 6000 (GE Healthcare). The number of insoluble p62 granules were counted by IN CELL ANALYZER 6000 (GE Healthcare). To investigate glycogen accumulation, Periodic acid Schiff (PAS) staining of hepatocyte-like cells were performed by PAS staining solution (Muto Pure chemicals, Tokyo, Japan), according to the manufacturer's protocol.
The inventors therefore treated the HLCs derived from normal and NPC-iPS cell lines with a series of 2-hydroxypropyl-cyclodextrins with different cavity sizes, and observed effect of a series of hydroxypropyl-cyclodextrins. HLCs were cultured with 1 mM of the indicated hydroxypropyl-cyclodextrin for 4 days, stained with filipin and analyzed with an IN CELL ANALYSER (GE Healthcare) (FIG. 18).
as §3

NPC-derived HLCs [7] = experiment: Measurement of ATP in HLCs; type: cell-based, human; settings: 1 mM HPCD, 4 days; FIG. 21
Description: Hepatocyte-like cells derived from the iPSC lines were cultured in DMEM medium in the absence of glucose for 24 hours and were then cultured in the DMEM medium containing 10% FBS and high glucose for 6 hours. ATP was measured by ATP measurement Kit (TOYO INK), according to the manufacturer's protocol.
as §2

[8] = 4000 mg/kg once a week from 4 to 8.5 weeks of age, FIG. 30

In the case of 2-hydroxypropyl-γ-cyclodextrin [HPGCD], the cholesterol dissolution activity (cultured cells) is given as “a several tenth part or less, compared with that of HPBCD”, the “survival after injection (acute toxicity)” value (normal mice) is given as “no mice dies” and the “amount of insoluble p62” value (p62 [1]) is given as “reduced the amount of insoluble p62”. For the same substance, the “ALT (alanine aminotransferase), serum marker for liver injury” value (NPC model mice [2]; [8]) was “markedly and significantly reduced”, the “AST (aspartate aminotransferase), serum marker for liver injury” value (NPC model mice [2]; [8]) was “markedly and significantly reduced” and the “histological analysis of livers” value (NPC model mice [2]; 4000 mg/kg once a week, FIG. 31) was “marked morphological improvement”. For the same substance, the “deletion of Purkinje cells in the cerebellum” value (NPC model mice [2]; 4000 mg/kg once a week, FIG. 32) was “rescued; also recorded: restored”, the “abnormal autophagy in NPC mice” value (NPC model mice [2]; data not shown) was “restored” and the “expression level of LC3 in livers and brains” value (NPC model mice [2]; data not shown) was “restored to the normal level”. For the same substance, the “expression level of insoluble p62 in livers and brains” value (NPC model mice [2]; data not shown) was “restored to the normal level”, the “hemolytic activity (order)” value (isolated erythrocyte) was “HPBCD>HPACD>HPGCD” and the “expression level of LC3” value (LC3) was “recovered to normal levels”. For the same substance, the NPC mouse survival (NPC model mice [3]) was “significantly prolonged”, the “size of HLCs” value (NPC-derived HLCs [4]) was “decreased” and the “proportion of HLCs carrying more than 40 granules of insoluble p62 aggregation” value (p62 [5]) was “greatly reduced”. The “activity on hepatocyte-like cells differentiation-induced from NPC patient-derived iPS cells” value (NPC-derived HLCs [6]) was “equal to or more than that of HPBCD”, the “cholesterol accumulated in hepatocyte-like cells derived from NPC” value (NPC-derived HLCs [6]) was “removed cholesterol accumulated in hepatocyte-like cells derived from NPC” and the “function of the hepatocyte-like cells” value (NPC-derived HLCs [6]) was “recovered the function of the hepatocyte-like cells”. For the same substance, the “cholesterol accumulation in NPC-HLCs (filipin staining)” value (NPC-derived HLCs [6]; 1 mM hydroxypropyl-cyclodextrin, 4 days, FIG. 18) was “reduced the cholesterol accumulation in NPC-HLCs to the same extent as that observed for HPBCD”, the “cholesterol accumulation in NPC-derived HLCs (filipin staining)” value (NPC-derived HLCs [6]; low concentration 100 μM, 4 days, FIG. 19) was “ineffective for reducing cholesterol accumulation” and the ATP level (NPC-derived HLCs [7]) was “recovered”.
